As a reminder, the IC50 is the concentration that gives 50% inhibition.

SMILES strings stand for the structures. Calls of active or inactive are those of the source. No cut-off for these calls is given here.

These results are taken from ChEMBL document CHEMBL2401684, “Synthesis and evaluation of a conditionally-silent agonist for the α7 nicotinic acetylcholine receptor” (Bioorg Med Chem Lett, 2013).

The target in assay [1] is T1, Neuronal acetylcholine receptor subunit alpha-7 (Homo sapiens, UniProt P36544). Kind of assay: Agonist activity at human alpha7 nAChR expressed in Xenopus laevis oocytes assessed as induction of acetylcholine-stimulated peak inward current by two-electrode voltage clamp assay. It counts as cell-based. Conditions: Oocyte.
T1 sequence (P36544 whole entry): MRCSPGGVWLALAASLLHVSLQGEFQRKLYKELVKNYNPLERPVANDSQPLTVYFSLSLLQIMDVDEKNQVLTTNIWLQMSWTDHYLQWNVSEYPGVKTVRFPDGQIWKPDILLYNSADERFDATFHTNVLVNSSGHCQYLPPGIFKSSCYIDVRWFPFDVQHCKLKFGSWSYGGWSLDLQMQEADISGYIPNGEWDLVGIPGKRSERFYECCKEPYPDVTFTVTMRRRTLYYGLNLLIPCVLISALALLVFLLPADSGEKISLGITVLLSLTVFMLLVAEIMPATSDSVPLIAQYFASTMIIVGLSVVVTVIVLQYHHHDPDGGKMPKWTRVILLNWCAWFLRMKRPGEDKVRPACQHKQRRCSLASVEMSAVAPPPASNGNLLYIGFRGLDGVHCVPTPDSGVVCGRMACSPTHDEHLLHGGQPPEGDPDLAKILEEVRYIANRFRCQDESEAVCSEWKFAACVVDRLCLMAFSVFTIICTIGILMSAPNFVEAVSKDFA
Assay [2] deals with Neuronal acetylcholine receptor subunit alpha-7 (Rattus norvegicus) (UniProt Q05941). Kind of assay: Agonist activity at rat alpha7 nAChR expressed in Xenopus laevis oocytes assessed as induction of acetylcholine-stimulated peak inward current by two-electrode voltage clamp assay. It counts as cell-based. The settings on record: Oocyte. Background: Two-electrode voltage clamp is typically applied to oocytes expressing channels or transporters.
Sequence of Neuronal acetylcholine receptor subunit alpha-7 (Rattus norvegicus) (Q05941 whole entry): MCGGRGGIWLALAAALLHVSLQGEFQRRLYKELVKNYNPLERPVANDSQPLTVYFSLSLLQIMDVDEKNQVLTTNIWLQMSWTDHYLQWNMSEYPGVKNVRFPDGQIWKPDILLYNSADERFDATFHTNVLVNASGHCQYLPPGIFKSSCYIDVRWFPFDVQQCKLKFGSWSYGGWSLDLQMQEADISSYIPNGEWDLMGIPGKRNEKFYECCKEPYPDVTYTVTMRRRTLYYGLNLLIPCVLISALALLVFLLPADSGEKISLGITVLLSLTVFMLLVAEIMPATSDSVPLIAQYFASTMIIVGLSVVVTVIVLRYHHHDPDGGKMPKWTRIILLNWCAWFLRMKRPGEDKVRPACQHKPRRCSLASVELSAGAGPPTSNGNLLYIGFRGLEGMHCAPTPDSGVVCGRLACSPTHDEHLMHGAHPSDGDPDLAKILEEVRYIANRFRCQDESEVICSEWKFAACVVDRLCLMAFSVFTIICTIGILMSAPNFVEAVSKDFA

For assay [3], the target named is T1, Neuronal acetylcholine receptor subunit alpha-7. The experiment in a line: Silent agonist activity at human alpha7 nAChR expressed in Xenopus laevis oocytes assessed as induction of PNU-120596-stimulated peak current in presence of methyllycaconitine. It counts as cell-based. Conditions: Oocyte.
Assay [4] has the same target. Kind of assay: Silent agonist activity at human alpha7 nAChR expressed in Xenopus laevis oocytes assessed as induction of PNU-120596-stimulated peak current. It counts as cell-based, Oocyte.
Assay [5] shares this target. The experiment in a line: Silent agonist activity at human alpha7 nAChR expressed in Xenopus laevis oocytes assessed as induction of PNU-120596-stimulated peak current at 100 uM. The format is cell-based. The settings on record: Oocyte.
Assay [6] shares this target. The experiment in a line: Antagonist activity at human alpha7 nAChR expressed in Xenopus laevis oocytes assessed as reduction of acetylcholine-induced peak current at 100 uM. It counts as cell-based. Conditions: Oocyte.
Assay [7] has the same target. Kind of assay: Agonist activity at human alpha7 nAChR expressed in Xenopus laevis oocytes assessed as induction of peak current at 100 uM. It counts as cell-based. Conditions: Oocyte.
The target is the same in assay [8]. The experiment in a line: Silent agonist activity at human alpha7 nAChR expressed in Xenopus laevis oocytes assessed as induction of TQS-stimulated peak current. It counts as cell-based. The settings on record: Oocyte.

Consider `O=C(c1ccc(-c2cccc(C(F)(F)F)c2)o1)N1CCN2CCC1CC2`, for which the Activity in assay [1] and in assay [2] was under 2% in each case.
For `c1ccc(-c2cncc(C3=NCCCC3)c2)cc1`, the result in assay [3] and in assay [7] was inactive. Also, the IC50 in assay [4] amounted to 41 µM. Further, the outcome in assay [5], in assay [6] and in assay [8] was Active.
